Source: patent publication US20220290200A1, “GENETICALLY MODIFIED HOST CELLS PRODUCING GLYCOSYLATED CANNABINOIDS” (OCTARINE BIO IVS, priority 2019, published 2022)

Test: In vitro glycosyl transferase performance, purified enzymes, % conversion of cannabinoids to cannabinoid glycosides
Assay type: biochemical
Conditions: for Conversion % (11-nor-9-carboxy-THC-glycoside produced): substrate 11-nor-9-carboxy-THC, enzyme PL-113(Tc90A_GA); for Conversion % (CBD to the glycoside): acceptor CBD; for Conversion % (THC-glycoside produced): substrate THC; for Conversion % (CBDV to the glycoside): acceptor CBDV; for Conversion % (CBG to the glycoside): acceptor CBG
Method: For in vitro studies of glycosyl transferase performance in glycosylating cannabinoids, purified Glycosyl transferases were prepared as follows:
5 mL of 2× concentrated LB medium+Ampicillin (50 μg/m L) was inoculated with E. coli XJb (DE3) strains expressing a glycosyl transferase of interest and incubated overnight at 30° C. with shaking. The following day, cell cultures were transferred into 500 mL of 2× concentrated LB medium+Ampicillin (50 μg/mL) and incubated overnight at 30° C. with shaking. The following day, the cell cultures were transferred to 1 L of 2× concentrated LB medium+Ampicillin (50 μg/mL)+3 mM arabinose+0.1 mM IPTG. Cells were incubated for 24 h at 20° C. with shaking. The following day, the cells were collected by centrifugation at 46500×g for 10 mins at 4° C. Cells were resuspended in 20 mL ice-cold GT buffer (50 mM Tris-HCl pH7.4+1 mM phenylmethanesulfonyl fluoride+1 cOmplete™, mini, EDTA-free Protease Inhibitor Cocktail tablet (Roche)). The resuspended material was transferred to a 50 mL falcon tube and kept at −80° C. for at least 15 mins. Falcon tubes were then thawed at room temperature, as the tubes were thawing the following reagents were added; 2.6 mM MgCl2, 1 mM CaCl2, 250 μL of a 1.4 mg/ml DNase solution (Sigma) dissolved in MilliQ water. Tubes were gently inverted to mix then were incubated for 5 mins at 37° C. Binding buffer was then added to the tubes (50 mM Tris-HCl pH7.4, 10 mM imidazole, 500 mM NaCl. 11.25 mL MilliQ water) and the pH adjusted to 7.4 with HCl. The mix was centrifuged at 15550×g for 15 mins at 4° C., the supernatant transferred to a fresh 50 mL falcon tubes and centrifuged again to remove any remaining cellular debris at 48400×g for 20 minutes at 4° C. While the enzyme prep was centrifuging, 3 mL of HIS-Select (available from Sigma P6611) column material was added to a fresh 50 mL tube and washed by adding MilliQ water up to 50 mL, centrifuging at 2000×g for 2 mins and discarding the supernatant. This washing step was repeated. Finally, MilliQ water was added to the HIS-Select material to an approximate 50% volume. Collected supernatant from the centrifuged enzyme preparation was transferred to the tube containing the HIS-Select material through a Miracloth (available from Merck Millipore), and then incubated at 4° C. with gently shaking by inversion for 2 h. After 2 h the mix was centrifuged at 2000×g for 4 minutes at 4° C. and the supernatant discarded. The remaining HIS-Select material was washed twice with 1× binding buffer (50 mM Tris-HCl, 0.5M NaCl, 10 mM Imidazole, pH 7.4) with centrifugation at 2000×g for 4 minutes at 4° C. The HIS-Select material was resuspended in 5 mL 1× binding buffer and transferred to a Poly-Prep®Chromatography Column (available from BioRad, 7311550). The HIS-Select material was kept at 4° C. and washed twice with 1× binding buffer by filling up the column and allowing it to drip through. Finally, purified Glycosyl transferases were eluted from the HIS-Select material by adding 7.5 mL of elution buffer (50 mM Tris-HCl, 500 mM Imidazole, pH7.4) and collecting the flow through. Enzymes were used immediately in in vitro enzyme assays or stored at −20° C. in 50% glycerol until needed.
In vitro conversion of various cannabinoids to cannabinoid glycosides was carried out according to table 21. Alkaline phosphatase was provided by New England Biolabs (M0371S). Cannabinoids were dissolved in methanol. The UDP-sugar (e.g. UDP-glucose) was provided by a commercial supplier (e.g. Sigma) or produced by in vitro enzymatic conversion from a commercially available UDP-sugar as shown in Example 21.
The reaction mixture was scaled up or down as required. The reaction mixture was incubated without shaking at 30° C. for 24 hours. Extraction and analysis were performed as described above for this example. […]

[1] = UDP-Xylose, enzyme PL-214(Cs73Y_GA)
[2] = UDP-Glucose, enzyme PL-214(Cs73Y_GA)

Molecule: 11-nor-9-carboxy-THC-1′-O-β-D-di-glucoside [OB42]
- Conversion % (11-nor-9-carboxy-THC-glycoside produced) (sugar donor UDP-Glucose): 3.4%

Molecule: C=C(C)C1CCC(C)=CC1c1c(O)cc(CCCCC)cc1O[C@@H]1O[C@H](CO)[C@@H](O)[C@H](O[C@@H]2O[C@H](CO)[C@@H](O)[C@H](O)[C@H]2O)[C@H]1O (stereo partly drawn) [OB2, CBD-1′-O-β-D-laminaribioside]
- Conversion % (CBD to the glycoside) (UDP-Glucose, enzymes PL-159(Pt88G_GA) + PL-55(Sr76G1_GA)): 80.7%

Molecule: C=C(C)C1CCC(C)=CC1c1c(O)cc(CCCCC)cc1OC1OC(COC2OC(CO)C(O)C(O)C2O)C(O)C(O)C1O (stereo not shown) [OB3]
- Conversion % (CBD to the glycoside) (UDP-Glucose, enzymes PL-159(Pt88G_GA) + PL-152(Si94D_GA)): 96.4%

Molecule: C=C(C)C1CCC(C)=CC1c1c(O)cc(CCCCC)cc1O[C@@H]1OC[C@@H](O)[C@H](O)[C@H]1O (stereo partly drawn) [OB9, CBD-1′-O-β-D-xyloside]
- Conversion % (CBD to the glycoside) (UDP-Xylose, enzyme PL-159(Pt88G_GA)): 12.4%

Molecule: C=C(C)C1CCC(C)=CC1c1c(O)cc(CCCCC)cc1OC1OC(C(=O)O)C(O)C(O)C1O (stereo not shown) [OB14]
- Conversion % (CBD to the glycoside) (UDP-Glucuronic Acid, enzyme PL-214(Cs73Y_GA)): 2.0%

Molecule: C=C(C)C1CCC(C)=CC1c1c(O)cc(CCCCC)cc1OC1OC(CO)C(O)C(O)C1O (stereo not shown) [OB16]
- Conversion % (CBD to the glycoside) (UDP-Galactose, enzyme PL-214(Cs73Y_GA)): 62%

Molecule: CCCCCc1cc(O[C@@H]2O[C@H](CO)[C@@H](O)[C@H](O)[C@H]2O)c2c(c1)OC(C)(C)[C@@H]1CCC(C)=C[C@@H]21 [OB20, THC-1′-O-β-D-glucoside]
- Conversion % (THC-glycoside produced) (sugar donor UDP-Glucose, enzyme PL-182(Ha88B_2_GA)): 74.9%

Molecule: CCCCCc1cc(OC2OCC(O)C(O)C2O)c2c(c1)OC(C)(C)C1CCC(C)=CC21 (stereo not shown) [OB21]
- Conversion % (THC-glycoside produced) (sugar donor UDP-Xylose, enzyme PL-214(Cs73Y_GA)): 19.5%

Molecule: C=C(C)[C@@H]1CCC(C)=C[C@H]1c1c(O)cc(CCC)cc1O[C@@H]1O[C@H](CO)[C@@H](O)[C@H](O)[C@H]1O [OB24, CBDV-1′-O-β-D-glucoside]
- Conversion % (CBDV to the glycoside) (UDP-Glucose, enzyme PL-326(Ha72B_GA)): 92.6%

Molecule: C=C(C)[C@@H]1CCC(C)=C[C@H]1c1c(O[C@@H]2O[C@H](CO)[C@@H](O)[C@H](O)[C@H]2O)cc(CCC)cc1O[C@@H]1O[C@H](CO)[C@@H](O)[C@H](O)[C@H]1O [OB25, CBDV-1′-O-β-O-glucosyl-3′-O-β-D-glucoside]
- Conversion % (CBDV to the glycoside) (UDP-Glucose, enzyme PL-342(Cp73B_GA)): 4.5%

Molecule: C=C(C)C1CCC(C)=CC1c1c(O)cc(CCC)cc1OC1OCC(O)C(O)C1O (stereo not shown) [OB29]
- Conversion % (CBDV to the glycoside) [1]: 12.1%

Molecule: C=C(C)C1CCC(C)=CC1c1c(OC2OC(CO)C(O)C(O)C2O)cc(CCCCC)c(C(=O)O)c1O [OB31, CBDA-1′-O-β-D-glucoside]
- Conversion % (CBDA to the glycoside) (acceptor CBDA, UDP-Glucose, enzyme PL-214(Cs73Y_GA)): 92%

Molecule: CCCCCc1cc(O)c(C/C=C(\C)CCC=C(C)C)c(O[C@@H]2O[C@H](CO)[C@@H](O)[C@H](O)[C@H]2O)c1 [OB32, CBG-1′-O-β-D-glucoside]
- Conversion % (CBG to the glycoside) (UDP-Glucose, enzyme PL-340(Qs72S_1_GA)): 98.9%

Molecule: CCCCCc1cc(O[C@@H]2O[C@H](CO)[C@@H](O)[C@H](O)[C@H]2O)c(C/C=C(\C)CCC=C(C)C)c(O[C@@H]2O[C@H](CO)[C@@H](O)[C@H](O)[C@H]2O)c1 [OB33, CBG-1′-O-β-D-glucosyl-3′-O-β-D-glucoside]
- Conversion % (CBG to the glycoside) (UDP-Glucose, enzyme PL-5(At73C5_GA)): 4.5%

Molecule: CCCCCc1cc(O)c(C/C=C(\C)CCC=C(C)C)c(O[C@@H]2OC[C@@H](O)[C@H](O)[C@H]2O)c1 [OB36]
- Conversion % (CBG to the glycoside) [1]: 1.0%

Molecule: CCCCCc1cc(O[C@@H]2O[C@H](CO)[C@@H](O)[C@H](O)[C@H]2O)c2c(c1)OC(C)(C)[C@@H]1CCC(C(=O)O)=C[C@@H]21 [OB41, 11-nor-9-carboxy-THC-1′-O-β-D-glucoside]
- Conversion % (11-nor-9-carboxy-THC-glycoside produced) (sugar donor UDP-Glucose): 70.2%

Molecule: CBD-1′-O-β-D-glucosyl-3′-O-β-D-di-glucoside [OB8]
- Conversion % (CBD to the glycoside) [2]: 12.3%

Molecule: CBD-1′-O-β-D-tri-glucoside [OB7]
- Conversion % (CBD to the glycoside) [2]: 27.3%

Molecule: CBG-1′-O-β-D-tetra-xyloside [OB40]
- Conversion % (CBG to the glycoside) [1]: 1.2%

Molecule: CBN-1′-O-β-D-di-glucoside [OB23]
- Conversion % (CBN-glycoside produced) (substrate CBN, sugar donor UDP-Glucose, enzyme PL-342(Cp73B_GA)): 100%

B1: Cp7.38: glycosyl transferase, SEQ ID NO: 191, 192 (protein)
chain: MGSEVLHHDYSQLNIFFFPFMAHGHMIPTLDMAKLFATHGAKTSIITTPLNLPFFSKSIERFSKQTGLEIGVKLLNFPSVEVGLPSGCENADSLPAGEPLIVNKFFAAAGMLKDPLERLLQEFKPDCLIADMFFPWTTDAAAKFDIPRLVFHGTSFFALSASECIRLYTPFNNVSSDSEPFLVPTLPDEIRLTRNQLADFAMKEGDENGIHRLIKEAKESELKSYGVVVNSFYELEPAYADHYRNFLKRKAWHIGPVSLCNKTVEDKAERGKRASIDEDECLKWLNSKAPNSVIYICFGSMANFNSAQLMEIATALDASGQEFIWVVRREKNENNQEDWLPEGFEQRTEGKGLIIRGWAPQVLILEHEAVGGFVTHCGWNSTLEGVTAGMPMVTWPVSAEQFYNEKLVTEVLKIGLSVGVKKWVRSEGDFVSREKVEQAVREIMVGSEAVERRMRAKAMADMARAAVEKGGSSYNDLNALLREVSLMRRQQSQNQ
- conversion of cannabinoid aglycone to cannabinoid glycoside in 24 h (CBN to CBN-1′-O-β-D-di-glucoside (OB23)): 100%

B2: Pt78G: glycosyl transferase, SEQ ID NO: 165, 166 (protein)
chain: MSEARNDLKHIAVLAFPVATHGPPLLSLVRRLSASASYAKFSFFSTKESNSKLFSKEDGLENIKPYNVSDGLPENYNFAGNLDEVMNYFFKATPGNFKQAMEVAVKEVGKDFTCIMSDAFLWFAADFAQELHVPWVPLWTSSSRSLLLVLETDLVHQKMRSIINEPEDRTIDILPGFSELRGSDIPKELFHDVKESQFAAMLCKIGLALPQAAVVASNSFEELDPDAVILFKSRLPKFLNIGPFVLTSPDPFMSDPHGCLEWLDKQKQESVVYISFGSVISLPPQELAELVEALKECKLPFLWSFRGNPKEELPEEFLERTKEKGKVVSWTPQLKVLRHKAIGVFVTHSGWNSVLDSIAGCVPMICRPFFGDQTVNTRTIEAVWGTGLEIEGGRITKGGLMKALRLIMSTDEGNKMRKKLQHLQGLALDAVQSSGSSTKNFETLLEVVAK
- conversion of cannabinoid aglycone to cannabinoid glycoside in 24 h (CBG to CBG-1′-O-β-D-glucosyl-3′-O-β-D-glucoside (OB33)): 100%
